Reference: US10450378B2, “Cytotoxic and anti-mitotic compounds, and methods of using the same” (priority 2014, dated 2019)
Where two headings read alike, the source gives them in different places.

Experiments:
Experiment in all cases: Cellular cytotoxicity of compounds of Formula I, Example 3.1
Assay type in all cases: cell-based
[1] = test system: Human gastric carcinoma cell line NCI-N87; settings: five nights, CellTiter-Glo
Description: (§1) Compounds were tested on one or more of Human T-cell leukemia cell line Jurkat (ATCC: TIB-152); Human breast cancer cell lines HCC1954 (ATCC: CRL-2338) and JIMT-1 (DSMZ: ACC 589); Human Pancreatic cell line BxPC-3 (ATCC: CRL.1687), Human ovarian adenocarcinoma cell line SK-OV-3 (ATCC: HTB-77) and Human gastric carcinoma cell line NCI-N87 (ATCC: CRL. 5822); to assess their cytotoxicity.
(§2) Briefly, cells were obtained from commercial sources and cultured as described in the product sheet provided. Cells were removed from their culture vessels and the resulting cell suspension was counted using a ViCell (Beckman Coulter), then seeded at 25,000 cells/mL (2,500 cells/well) in Costar 3904 black walled, flat bottomed 96-well plates (cells were seeded in the inner 60 wells of 96-well TC plates, and outer edge wells filled with water). Adherent cell lines were incubated for one night at 37° C./5% CO2 atmosphere to allow the cells to attach to the microtiter plate surface, while suspension (Jurkat) cells were plated immediately before use. Cytotoxins were dissolved and serially diluted in dimethyl sulfoxide and then the solutions were added to complete growth medium at five-times the desired maximum final concentration. The cytotoxins were then titrated in growth medium, normally 1:3, over eight steps. A control with no test article present (growth medium alone) was included on each microtiter plate in sextuplicate. The prepared toxin titrations were added (25 μL/well) in triplicate to each cell line assayed. The cells and titrations were incubated at 37° C./5% CO2 for three nights (Jurkat) and five nights (all other cell lines). After the incubation, cell viability was measured using CellTiter-Glo® by adding 30 μL of prepared CellTiter-Glo® reagent to each assay well. The mixtures were incubated for at least twenty minutes in the dark prior to measuring emitted luminescence using a microplate luminometer (500 ms integration time). The collected relative luminescence units (RLU) were converted to % cytotoxicity using the growth medium alone control mentioned above (% Cytotoxicity=1-[well RLU/average medium alone control RLU]×100%).

[2] = test system: Human T-cell leukemia cell line Jurkat; settings: Homo sapiens, Jurkat, read-out: EC50 (nM) Jurkat
Description: as §1, §2

[3] = test system: Human Pancreatic cell line BxPC-3; settings: five nights, CellTiter-Glo
Description: as §1, §2

Compound `CC[C@H](C)[C@@H]([C@@H](CC(=O)N1CCC[C@H]1[C@H](OC)[C@@H](C)C(=O)N[C@@H](Cc1ccccc1)C(=O)NS(=O)(=O)Cc1ccc(CN)cc1)OC)N(C)C(=O)[C@@H](NC(=O)[C@H](C(C)C)N(C)C)C(C)C` [Compound 28, (S)-N-((3R,4S,5S)-1-((S)-2-((1R,2R)-3-(((S)-1-(((4-(Aminomethyl)phenyl)methyl)sulfonamido)-1-oxo-3-phenylpropan-2-yl)amino)-1-methoxy-2-methyl-3-oxopropyl)pyrrolidin-1-yl)-3-methoxy-5-methyl-1-oxoheptan-4-yl)-2-((S)-2-(dimethylamino)-3-methylbutanamido)-N,3-dimethylbutanamide] has an EC50 [1] of over 100 nM, an EC50 ([2]; three nights, CellTiter-Glo) of about 100 nM and an EC50 [3] of over 100 nM.

`CC[C@H](C)[C@@H]([C@@H](CC(=O)N1CCC[C@H]1[C@H](OC)[C@@H](C)C(=O)N[C@@H](Cc1ccccc1)C(=O)NS(=O)(=O)c1ccc(CNC(=O)C(F)(F)F)cc1)OC)N(C)C(=O)[C@@H](NC(=O)[C@H](C(C)C)N(C)C)C(C)C` [Compound 23, (S)-2-((S)-2-(Dimethylamino)-3-methylbutanamido)-N-((3R,4S,5S)-3-methoxy-1-((S)-2-((1R,2R)-1-methoxy-2-methyl-3-oxo-3-(((S)-1-oxo-3-phenyl-1-((4-((2,2,2-trifluoroacetamido)methyl)phenyl)sulfonamido)propan-2-yl)amino)propyl)pyrrolidin-1-yl)-5-methyl-1-oxoheptan-4-yl)-N,3-dimethylbutanamide] was tested, and the EC50 [1] was 11.3 nM, the EC50 [2] was 11.8 nM and the EC50 [3] was 17.2 nM.

For `CC[C@H](C)[C@@H]([C@@H](CC(=O)N1CCC[C@H]1[C@H](OC)[C@@H](C)C(=O)NS(=O)(=O)c1ccc(NC(=O)C(F)(F)F)cc1)OC)N(C)C(=O)[C@@H](NC(=O)[C@H]1CCCCN1C(C)C)C(C)C` [Compound 15, (R)-1-Isopropyl-N-((S)-1-(((3R,4S,5S)-3-methoxy-1-((S)-2-((1R,2R)-1-methoxy-2-methyl-3-oxo-3-((4-(2,2,2-trifluoroacetamido)phenyl)sulfonamido)propyl)pyrrolidin-1-yl)-5-methyl-1-oxoheptan-4-yl)(methyl)amino)-3-methyl-1-oxobutan-2-yl)piperidine-2-carboxamide], the EC50 [1] was 11.7 nM, the EC50 ([2]; three nights, CellTiter-Glo) was 10.1 nM and the EC50 [3] was 14.5 nM.

`CC[C@H](C)[C@@H]([C@@H](CC(=O)N1CCC[C@H]1[C@H](OC)[C@@H](C)C(=O)NS(=O)(=O)c1ccc(CNC(=O)C(F)(F)F)cc1)OC)N(C)C(=O)[C@@H](NC(=O)[C@H](C(C)C)N(C)C)C(C)C` [Compound 21, (S)-2-((S)-2-(Dimethylamino)-3-methylbutanamido)-N-((3R,4S,5S)-3-methoxy-1-((S)-2-((1R,2R)-1-methoxy-2-methyl-3-oxo-3-((4-((2,2,2-trifluoroacetamido)methyl)phenyl)sulfonamido)propyl)pyrrolidin-1-yl)-5-methyl-1-oxoheptan-4-yl)-N,3-dimethylbutanamide] showed an EC50 [1] of over 300 nM, an EC50 ([2]; three nights, CellTiter-Glo) of about 100 nM and an EC50 [3] of over 100 nM.

`CC[C@H](C)[C@@H]([C@@H](CC(=O)N1CCC[C@H]1[C@H](OC)[C@@H](C)C(=O)NS(=O)(=O)c1ccc(N)cc1)OC)N(C)C(=O)[C@@H](NC(=O)[C@@H](NC)C(C)C)C(C)C` [Compound 20, (S)-N-((3R,4S,5S)-1-((S)-2-((1R,2R)-3-((4-Aminophenyl)sulfonamido)-1-methoxy-2-methyl-3-oxopropyl)pyrrolidin-1-yl)-3-methoxy-5-methyl-1-oxoheptan-4-yl)-N,3-dimethyl-2-((S)-3-methyl-2-(methylamino)butanamido)butanamide] was tested, and the EC50 [1] was over 300 nM, the EC50 ([2]; three nights, CellTiter-Glo) was over 100 nM and the EC50 [3] was over 300 nM.

For `CC[C@H](C)[C@@H]([C@@H](CC(=O)N1CCC[C@H]1[C@H](OC)[C@@H](C)C(=O)NS(=O)(=O)c1ccc(C2(NC(=O)C(F)(F)F)CC2)cc1)OC)N(C)C(=O)[C@@H](NC(=O)[C@H](C(C)C)N(C)C)C(C)C` [Compound 29, (S)-2-((S)-2-(Dimethylamino)-3-methylbutanamido)-N-((3R,4S,5S)-3-methoxy-1-((S)-2-((1R,2R)-1-methoxy-2-methyl-3-oxo-3-(4-(1-(2,2,2-trifluoroacetamido)cyclopropyl)phenylsulfonamido)propyl)pyrrolidin-1-yl)-5-methyl-1-oxoheptan-4-yl)-N,3-dimethylbutanamide], the EC50 ([2]; three nights, CellTiter-Glo) was 22.1 nM.

Compound `CC[C@H](C)[C@@H]([C@@H](CC(=O)N1CCC[C@H]1[C@H](OC)[C@@H](C)C(=O)N[C@@H](Cc1ccccc1)C(=O)NS(=O)(=O)c1ccc(CN)cc1)OC)N(C)C(=O)[C@@H](NC(=O)[C@H](C(C)C)N(C)C)C(C)C` [Compound 24, (S)-N-((3R,4S,5S)-1-((S)-2-((1R,2R)-3-(((S)-1-((4-(Aminomethyl)phenyl)sulfonamido)-1-oxo-3-phenylpropan-2-yl)amino)-1-methoxy-2-methyl-3-oxopropyl)pyrrolidin-1-yl)-3-methoxy-5-methyl-1-oxoheptan-4-yl)-2-((S)-2-(dimethylamino)-3-methylbutanamido)-N,3-dimethylbutanamide] has an EC50 [1] of over 100 nM, an EC50 ([2]; three nights, CellTiter-Glo) of about 100 nM and an EC50 [3] of over 100 nM.

Work on `CC[C@H](C)[C@@H]([C@@H](CC(=O)N1CCC[C@H]1[C@H](OC)[C@@H](C)C(=O)N[C@@H](Cc1ccccc1)C(=O)NS(=O)(=O)c1ccc(C2(N)CC2)cc1)OC)N(C)C(=O)[C@@H](NC(=O)[C@H](C(C)C)N(C)C)C(C)C` [Compound 32, (S)-N-((3R,4S,5S)-1-((S)-2-((1R,2R)-3-((S)-1-(4-(1-Aminocyclopropyl)phenylsulfonamido)-1-oxo-3-phenylpropan-2-ylamino)-1-methoxy-2-methyl-3-oxopropyl)pyrrolidin-1-yl)-3-methoxy-5-methyl-1-oxoheptan-4-yl)-2-((S)-2-(dimethylamino)-3-methylbutanamido)-N,3-dimethylbutanamide] yielded an EC50 ([2]; three nights, CellTiter-Glo) of over 100 nM.

With `CC[C@H](C)[C@@H]([C@@H](CC(=O)N1CCC[C@H]1[C@H](OC)[C@@H](C)C(=O)NS(=O)(=O)c1ccc(N)cc1)OC)N(C)C(=O)[C@@H](NC(=O)[C@H]1CCCCN1C(C)C)C(C)C` [Compound 16, (R)-N-((S)-1-(((3R,4S,5S)-1-((S)-2-((1R,2R)-3-((4-Aminophenyl)sulfonamido)-1-methoxy-2-methyl-3-oxopropyl)pyrrolidin-1-yl)-3-methoxy-5-methyl-1-oxoheptan-4-yl)(methyl)amino)-3-methyl-1-oxobutan-2-yl)-1-isopropylpiperidine-2-carboxamide] the EC50 [1] was 14.4 nM, the EC50 ([2]; three nights, CellTiter-Glo) was 11.5 nM and the EC50 [3] was 17 nM.

Work on `CC[C@H](C)[C@@H]([C@@H](CC(=O)N1CCC[C@H]1[C@H](OC)[C@@H](C)C(=O)NS(=O)(=O)c1ccc(C2(N)CC2)cc1)OC)N(C)C(=O)[C@@H](NC(=O)[C@H](C(C)C)N(C)C)C(C)C` [Compound 30, (S)-N-((3R,4S,5S)-1-((S)-2-((1R,2R)-3-(4-(1-Aminocyclopropyl)phenylsulfonamido)-1-methoxy-2-methyl-3-oxopropyl)pyrrolidin-1-yl)-3-methoxy-5-methyl-1-oxoheptan-4-yl)-2-((S)-2-(dimethylamino)-3-methylbutanamido)-N,3-dimethylbutanamide] yielded an EC50 ([2]; three nights, CellTiter-Glo) of over 100 nM.

`CC[C@H](C)[C@@H]([C@@H](CC(=O)N1CCC[C@H]1[C@H](OC)[C@@H](C)C(=O)NS(=O)(=O)c1ccc(N)cc1)OC)N(C)C(=O)[C@@H](NC(=O)C(C)(C)N)C(C)C` [Compound 17, (S)-2-(2-Amino-2-methylpropanamido)-N-((3R,4S,5S)-1-((S)-2-((1R,2R)-3-((4-aminophenyl)sulfonamido)-1-methoxy-2-methyl-3-oxopropyl)pyrrolidin-1-yl)-3-methoxy-5-methyl-1-oxoheptan-4-yl)-N,3-dimethylbutanamide] showed an EC50 [1] of over 100 nM, an EC50 ([2]; three nights, CellTiter-Glo) of 30.5 nM and an EC50 [3] of over 100 nM.

For `CC[C@H](C)[C@@H]([C@@H](CC(=O)N1CCC[C@H]1[C@H](OC)[C@@H](C)C(=O)N[C@@H](Cc1ccccc1)C(=O)NS(=O)(=O)c1ccc(C2(NC(=O)C(F)(F)F)CC2)cc1)OC)N(C)C(=O)[C@@H](NC(=O)[C@H](C(C)C)N(C)C)C(C)C` [Compound 31, (S)-2-((S)-2-(Dimethylamino)-3-methylbutanamido)-N-((3R,4S,5S)-3-methoxy-1-((S)-2-((1R,2R)-1-methoxy-2-methyl-3-oxo-3-((S)-1-oxo-3-phenyl-1-(4-(1-(2,2,2-trifluoroacetamido)cyclopropyl)phenylsulfonamido)propan-2-ylamino)propyl)pyrrolidin-1-yl)-5-methyl-1-oxoheptan-4-yl)-N,3-dimethylbutanamide], the EC50 [2] was 31.1 nM.
